Source: ChEMBL document CHEMBL1155854, “Conformationally constrained farnesoid X receptor (FXR) agonists: Naphthoic acid-based analogs of GW 4064” (Bioorg Med Chem Lett, 2008)
In brackets after ≈: the same amount, converted by molar mass. Activity calls are given as the source filed them. The rule behind the calls is not given here.

Assays:
[1] = Volume of distribution at steady state in iv dosed mouse; format: ADME, organism-based; conditions: in vivo, read-out: Vdss
[2] = molecular target: T1, Nuclear receptor ROR-alpha (Homo sapiens, UniProt P35398); assay: Agonist activity at RORalpha assessed as receptor-coactivator peptide interaction by FRET assay; format: functional
T1 sequence (P35398 whole entry): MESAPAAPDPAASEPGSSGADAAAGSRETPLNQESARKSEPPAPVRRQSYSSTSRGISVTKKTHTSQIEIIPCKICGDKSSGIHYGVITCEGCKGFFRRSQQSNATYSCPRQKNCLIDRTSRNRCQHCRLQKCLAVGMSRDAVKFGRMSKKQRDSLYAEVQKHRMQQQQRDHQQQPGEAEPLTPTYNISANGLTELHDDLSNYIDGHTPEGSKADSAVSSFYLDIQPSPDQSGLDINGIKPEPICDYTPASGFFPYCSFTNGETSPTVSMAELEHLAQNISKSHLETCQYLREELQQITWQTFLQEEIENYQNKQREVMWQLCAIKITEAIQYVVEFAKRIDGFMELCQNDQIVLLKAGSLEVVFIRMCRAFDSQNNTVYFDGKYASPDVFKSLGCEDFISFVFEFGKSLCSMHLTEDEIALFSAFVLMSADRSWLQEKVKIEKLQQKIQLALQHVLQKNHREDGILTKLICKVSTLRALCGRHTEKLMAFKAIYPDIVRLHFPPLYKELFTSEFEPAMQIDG

Bile acid receptor = molecular target: T2, Bile acid receptor (Homo sapiens, UniProt Q96RI1); assay: Agonist activity at FXR assessed as receptor-SRC-1 peptide interaction by FRET assay; format: functional
T2 sequence (Q96RI1 whole entry): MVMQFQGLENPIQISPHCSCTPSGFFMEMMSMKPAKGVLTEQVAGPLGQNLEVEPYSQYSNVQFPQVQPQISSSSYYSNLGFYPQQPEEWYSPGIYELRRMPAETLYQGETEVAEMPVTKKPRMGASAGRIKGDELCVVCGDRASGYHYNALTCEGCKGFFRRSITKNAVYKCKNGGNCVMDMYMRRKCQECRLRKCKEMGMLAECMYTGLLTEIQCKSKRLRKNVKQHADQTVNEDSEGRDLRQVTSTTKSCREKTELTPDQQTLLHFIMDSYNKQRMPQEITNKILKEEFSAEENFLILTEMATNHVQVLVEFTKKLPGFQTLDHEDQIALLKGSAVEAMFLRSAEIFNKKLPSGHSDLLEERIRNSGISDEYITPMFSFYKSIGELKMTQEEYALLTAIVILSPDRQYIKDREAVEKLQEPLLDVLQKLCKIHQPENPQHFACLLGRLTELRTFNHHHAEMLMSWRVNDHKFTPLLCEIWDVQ

[3] = Oral bioavailability in cynomolgus monkey at 5 mg/kg; format: ADME, organism-based, Macaca fascicularis; conditions: in vivo
Estrogen receptor beta = Estrogen receptor beta (Homo sapiens, UniProt Q92731); assay: Agonist activity at ERbeta by fluorescence polarization assay; format: functional
Chain of Estrogen receptor beta (Q92731 whole entry): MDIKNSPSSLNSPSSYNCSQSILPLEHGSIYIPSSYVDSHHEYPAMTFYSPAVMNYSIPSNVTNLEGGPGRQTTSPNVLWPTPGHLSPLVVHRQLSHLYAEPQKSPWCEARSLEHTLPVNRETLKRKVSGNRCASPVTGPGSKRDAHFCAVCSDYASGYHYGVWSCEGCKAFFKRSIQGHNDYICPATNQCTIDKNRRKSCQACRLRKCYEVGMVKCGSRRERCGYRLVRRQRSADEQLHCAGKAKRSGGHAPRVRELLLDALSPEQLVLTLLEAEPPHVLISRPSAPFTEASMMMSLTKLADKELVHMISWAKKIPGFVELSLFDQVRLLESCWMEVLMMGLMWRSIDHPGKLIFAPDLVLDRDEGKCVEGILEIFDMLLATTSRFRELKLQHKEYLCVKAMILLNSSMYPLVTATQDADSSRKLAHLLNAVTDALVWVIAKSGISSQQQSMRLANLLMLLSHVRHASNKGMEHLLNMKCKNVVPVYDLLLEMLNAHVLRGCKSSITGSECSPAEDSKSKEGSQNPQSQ

[4] = Clearance in iv dosed cynomolgus monkey; format: ADME, organism-based, Macaca fascicularis; conditions: in vivo
Rattus norvegicus [5] = assay: Reduction of serum HDLC level in alpha-naphthyl-isothiocyanate-induced rat acute cholestasis model at 100 to 300 mg/kg, po bid for 4 days dosed before 2 days induction by alpha-naphthyl-isothiocyanate; format: functional, organism-based
Cytochrome P450 3A4 [6] = molecular target: T3, Cytochrome P450 3A4 (Homo sapiens, UniProt P08684); assay: Inhibition of CYP3A4 in pooled human liver microsome using atrovastatin substrate; format: ADME, microsomes
T3 sequence (P08684 whole entry): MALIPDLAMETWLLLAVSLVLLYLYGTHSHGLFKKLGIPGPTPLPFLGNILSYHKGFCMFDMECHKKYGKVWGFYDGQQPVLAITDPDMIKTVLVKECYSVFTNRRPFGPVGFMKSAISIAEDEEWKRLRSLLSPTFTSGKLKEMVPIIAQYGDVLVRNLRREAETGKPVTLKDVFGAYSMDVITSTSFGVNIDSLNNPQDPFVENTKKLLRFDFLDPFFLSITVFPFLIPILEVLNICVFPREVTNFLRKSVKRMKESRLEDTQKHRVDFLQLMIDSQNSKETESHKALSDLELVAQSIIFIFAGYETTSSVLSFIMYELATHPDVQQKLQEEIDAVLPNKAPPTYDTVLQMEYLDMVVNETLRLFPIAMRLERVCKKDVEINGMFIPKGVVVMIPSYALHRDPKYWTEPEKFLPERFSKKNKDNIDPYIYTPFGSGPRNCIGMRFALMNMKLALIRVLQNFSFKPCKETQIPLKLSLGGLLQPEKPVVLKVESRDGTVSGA

[7] = Clearance in iv dosed Beagle dog; format: ADME, organism-based, Canis lupus familiaris; conditions: in vivo
[8] = molecular target: T4, Bile acid receptor (Homo sapiens) (UniProt Q96RI1); assay: Agonist activity at FXR expressed in african green monkey CV1 cells by luciferase reporter transient transfection assay relative to GW-4064; format: functional, cell-based; conditions: CV-1
T4 sequence (whole entry): T2 sequence (Q96RI1 whole entry)

[9] = Oral bioavailability in rat at 30 mg/kg; format: ADME, organism-based; conditions: in vivo
Rattus norvegicus [10] = assay: Reduction of serum gamma-glutamyl transferase level in alpha-naphthyl-isothiocyanate-induced rat acute cholestasis model at 100 to 300 mg/kg, po bid for 4 days dosed before 2 days induction by alpha-naphthyl-isothiocyanate; format: functional, organism-based
[11] = molecular target: T5, Oxysterols receptor LXR-alpha (Homo sapiens, UniProt Q13133); assay: Agonist activity at LXRalpha assessed as receptor-coactivator peptide interaction by FRET assay; format: functional
T5 sequence (Q13133 whole entry): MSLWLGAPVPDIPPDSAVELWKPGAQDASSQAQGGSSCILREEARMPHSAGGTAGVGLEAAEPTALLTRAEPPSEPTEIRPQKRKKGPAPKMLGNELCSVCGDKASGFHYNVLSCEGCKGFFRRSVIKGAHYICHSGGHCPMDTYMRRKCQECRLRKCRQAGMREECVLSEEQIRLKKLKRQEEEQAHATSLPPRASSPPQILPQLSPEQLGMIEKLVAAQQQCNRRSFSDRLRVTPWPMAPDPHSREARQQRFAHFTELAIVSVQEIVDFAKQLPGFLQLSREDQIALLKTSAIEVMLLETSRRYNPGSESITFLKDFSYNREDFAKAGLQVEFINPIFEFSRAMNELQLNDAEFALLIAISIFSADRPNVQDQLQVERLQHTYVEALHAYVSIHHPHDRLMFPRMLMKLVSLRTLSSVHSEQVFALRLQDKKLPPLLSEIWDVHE

[12] = Solubility in fasted state-simulated intestinal fluid at pH 6.5; format: physicochemical; conditions: simulated gi fluid
[13] = Half life in iv dosed cynomolgus monkey; format: ADME, organism-based, Macaca fascicularis; conditions: in vivo
[14] = Half life in iv dosed Beagle dog; format: ADME, organism-based, Canis lupus familiaris; conditions: in vivo
Cytochrome P450 3A4 [15] = molecular target: T3, Cytochrome P450 3A4; assay: Inhibition of CYP3A4 in pooled human liver microsome using midazolam substrate; format: ADME, microsomes
Rattus norvegicus [16] = assay: Reduction of serum alkaline phosphatase level in alpha-naphthyl-isothiocyanate-induced rat acute cholestasis model at 100 to 300 mg/kg, po bid for 4 days dosed before 2 days induction by alpha-naphthyl-isothiocyanate; format: functional, organism-based
PXR = molecular target: T6, PXR (Homo sapiens, UniProt O75469); assay: Agonist activity at PXR by SPA assay relative to GW-4064; format: functional; conditions: read-out: %max
T6 sequence (O75469 whole entry): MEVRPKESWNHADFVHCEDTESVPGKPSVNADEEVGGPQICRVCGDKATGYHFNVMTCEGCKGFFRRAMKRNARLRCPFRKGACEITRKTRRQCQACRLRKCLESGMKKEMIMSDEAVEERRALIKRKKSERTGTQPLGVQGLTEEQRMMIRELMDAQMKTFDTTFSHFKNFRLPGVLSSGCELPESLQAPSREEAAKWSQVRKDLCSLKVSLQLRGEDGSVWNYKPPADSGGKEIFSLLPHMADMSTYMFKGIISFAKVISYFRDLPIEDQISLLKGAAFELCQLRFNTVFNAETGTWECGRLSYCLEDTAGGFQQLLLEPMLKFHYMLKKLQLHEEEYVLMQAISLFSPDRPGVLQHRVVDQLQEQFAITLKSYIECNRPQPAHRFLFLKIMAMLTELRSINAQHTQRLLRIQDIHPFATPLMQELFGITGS

[17] = Clearance in iv dosed rat; format: ADME, organism-based; conditions: in vivo
Cytochrome P450 2C9 = Cytochrome P450 2C9 (Homo sapiens, UniProt P11712); assay: Inhibition of CYP2C9 in pooled human liver microsome; format: ADME
Chain of Cytochrome P450 2C9 (P11712 whole entry): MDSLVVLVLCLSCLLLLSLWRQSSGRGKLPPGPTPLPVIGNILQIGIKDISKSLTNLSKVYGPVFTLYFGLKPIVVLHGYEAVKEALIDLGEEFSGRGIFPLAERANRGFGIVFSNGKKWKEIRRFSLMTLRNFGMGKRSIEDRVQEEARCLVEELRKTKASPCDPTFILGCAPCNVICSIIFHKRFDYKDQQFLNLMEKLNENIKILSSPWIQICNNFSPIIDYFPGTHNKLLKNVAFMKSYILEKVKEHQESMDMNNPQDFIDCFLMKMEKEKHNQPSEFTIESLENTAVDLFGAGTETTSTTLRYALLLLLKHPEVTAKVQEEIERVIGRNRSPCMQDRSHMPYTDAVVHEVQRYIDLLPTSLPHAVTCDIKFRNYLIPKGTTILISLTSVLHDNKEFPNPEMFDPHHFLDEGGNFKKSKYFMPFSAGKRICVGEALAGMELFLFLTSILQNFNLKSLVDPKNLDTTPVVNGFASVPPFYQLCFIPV

CC(C)c1onc(-c2c(Cl)cccc2Cl)c1COc1ccc(-c2ccc3c(C(=O)O)cccc3c2)cc1
Vd [1]: 0.4 L/kg
XC50 [2]: > 10 µM
EC50 (Bile acid receptor): 0.087 µM
bioavailability [3]: 34%
XC50 (Estrogen receptor beta): > 20 µM
clearance [4]: 5.5 mL/min/kg
Activity (Rattus norvegicus [5]): Active
IC50 (Cytochrome P450 3A4 [6]): 4.6 µM
clearance [7]: 2 mL/min/kg
%max [8]: 104%
bioavailability [9]: 7.7%
Activity (Rattus norvegicus [10]): Active
XC50 [11]: > 20 µM
solubility [12]: 1 µg/mL (≈ 1.88 µM)
half-life [13]: 1.5 h
half-life [14]: 4.17 h
IC50 (Cytochrome P450 3A4 [15]): 7.2 µM
Activity (Rattus norvegicus [16]): Active
Emax (PXR): 63%
clearance [17]: 57 mL/min/kg
IC50 (Cytochrome P450 2C9): 17 µM
